Experimental data published in article PMC8066331, “Anticancer Activity of Triazolo-Thiadiazole Derivatives and Inhibition of AKT1 and AKT2 Activation” (Pharmaceutics, 2021).
Where two headings read alike, the source gives them in different places.

Tests used:
SKOV-3 = test: MTT in vitro antiproliferative assay, SKOV-3; format: cell-based; conditions: Homo sapiens; for IC (TGI): read-out: TGI
Text: (§1) The in vitro antiproliferative activities of the novel triazolo[3,4-b]thiadiazole derivatives were estimated in ten well-established human cancer cell lines including three ovarian (SKOV-3, UWB 1.289, and UWB 1.289+BRCA1), five colorectal adenocarcinoma (DLD-1, HT-29, LS174T, LoVo, and SW403), and two prostate cancer cell lines (PC-3 and DU-145). All cancer cell lines were obtained from the American Type Culture Collection (ATCC) and cultivated in different culture media according to the instructions. The required growth mediums were supplemented with 10% fetal bovine serum and 1% streptomycin/penicillin. All cancer cell lines were cultured as monolayers and maintained at 37 °C, 5% CO2 in humidified air.
(§2) Stock solutions of all tested compounds were prepared by dissolving the required amount of substances in the DMSO solvent to reach the desired concentration of 15 mM.
(§3) To evaluate the in vitro antiproliferative activity of the triazolo[3,4-b]thiadiazole derivatives, 3-(4,5-dimethylthiazol-2-yl)-2,5-diphenyltetrazolium bromide (MTT) assay was assessed. According to the protocol, cells were firstly seeded into a 96-well plate at a density of 8 × 10^3 cells and grown for 24 h at 37 °C, 5% CO2 in humidified air. Subsequently, cells were treated with the tested compounds in a specific range of drug concentrations (1–100 μΜ). Following 48 h of drug exposure, the culture media were discarded and replaced with 100 μL of fresh medium. Afterwards, 50 μL of dissolved MTT in phosphate-buffered saline (PBS) solution (5 mg/mL) were added in each well and cells were incubated for 3 h at 37 °C, 5% CO2 in humidified air. Incubation time was followed by MTT discard and the addition of 100 μL of DMSO solvent so that the formazan crystals could be dissolved. The absorbance of the converted dye was immediately measured at a wavelength of 540 nm on an ELISA reader (VersaMax Microplate Reader, Orleans, CA, USA).
(§4) The in vitro anticancer effect of a tested compound on cell viability was determined by three dose–response parameters termed GI50, TGI, and IC50. More specifically, the GI50 value indicates the required concentration of the compound that impels 50% cell growth inhibition, the TGI value corresponds to the concentration that induces 100% cell growth inhibition, and the IC50 value is the concentration that causes 50% cell death. The two parameters GI50 and TGI represent the cytostatic activity, whereas IC50 reflects the cytotoxic effect of a drug. To estimate the three parameters, nine absorbance measurements were required including control 24 h (Ct24), control 72 h (Ct72), and the mean of cell survival in all seven drug concentrations (Tt72). The percentage growth inhibition was calculated according to National Cancer Institute’s (NCI) protocol: [(Tt72x) − (Ct24)/(Ct72) − (Ct24)] × 100 for concentrations for which Tt72x > Ct24 and [(Tt72x) − (Ct24)/Ct24] × 100 for concentrations for which Tt72x < Ct24. GI50 was calculated from [(Tt72x) − (Ct24)/(Ct72) − (Ct24)] × 100 = 50, TGI was calculated from [(Tt72x) − (Ct24)/(Ct72) − (Ct24)] × 100 = 0, and IC50 was calculated from [(Tt72x) − (Ct24)/Ct24] × 100 = 50. All the experiments were carried out in triplicate.

PC-3 = test: MTT in vitro antiproliferative assay, PC-3; format: cell-based; conditions: Homo sapiens; for IC (TGI): read-out: TGI
Text: as §1, §2, §3, §4

DU-145 = test: MTT in vitro antiproliferative assay, DU-145; format: cell-based, human
Text: as §1, §2, §3, §4

DLD-1 = test: MTT in vitro antiproliferative assay, DLD-1; format: cell-based, human; conditions: DLD-1, MTT
Text: as §1, §2, §3, §4

HT-29 = test: MTT in vitro antiproliferative assay, HT-29; format: cell-based, human
Text: as §1, §2, §3, §4

[1] = SK-OV-3, SKOV-3, MTT, 48 h, concentration causing 50% cell death, read-out: IC50
[2] = SK-OV-3, SKOV-3, MTT, 48 h drug exposure, read-out: GI50
[3] = SK-OV-3, SKOV-3, MTT, 48 h drug exposure
[4] = PC-3, MTT, 48 h, 50% cell death, read-out: IC50
[5] = PC-3, MTT, 48 h drug exposure, read-out: GI50

Row | Structure (SMILES) | IC50 (SKOV-3; [1]) [µM] | GI50 (SKOV-3; [2]) [µM] | IC (TGI) (SKOV-3; [3]) [µM] | IC50 (PC-3; [4]) [µM] | GI50 (PC-3; [5]) [µM] | IC (TGI) (PC-3; PC-3, MTT, 48 h drug exposure) [µM] | other results
1 | COc1cc(Cc2nnc3sc(/C=C/c4ccc(Cl)cc4)nn23)c(S(=O)(=O)N(C(C)C)C(C)C)cc1OC [Compound 10a, (E)-2-((6-(4-chlorostyryl)-[1,2,4]triazolo[3,4-b][1,3,4]thiadiazol-3-yl)methyl)-N,N-diisopro-pyl-4,5-dimethoxybenzenesulfonamide] | > 100 | 76 ± 6 | > 100 | > 100 | 2 ± 0.5 | 84 ± 2 | 
2 | CCN(CC)S(=O)(=O)c1cc(OC)c(OC)cc1Cc1nnc2sc(-c3cc([N+](=O)[O-])ccc3[N+](=O)[O-])nn12 [Compound 6e, 2-((6-(2,5-dinitrophenyl)-[1,2,4]triazolo[3,4-b][1,3,4]thiadiazol-3-yl)methyl)-N,N-diethyl-4,5-dimethoxybenzenesulfonamide] |  |  |  |  |  |  | TGI (DU-145; DU-145, MTT, 48 h drug exposure): 18.3 ± 0.2 μΜ; GI50 (DU-145; Homo sapiens, DU-145, 48 h): 13 ± 0.5 µM; IC50 (DU-145; Homo sapiens, DU-145, 48 h): 28 ± 0.2 µM; TGI (DLD-1; 48 h drug exposure): 37 ± 2.0 μΜ; IC50 (DLD-1; Homo sapiens, 48 h, 50% cell death): 53.6 ± 1.05 µM; GI50 (DLD-1; Homo sapiens, 48 h drug exposure): 25 ± 2 µM; GI50 (SKOV-3; SK-OV-3, 48 h): 18 ± 0.7 µM; IC50 (SKOV-3; SK-OV-3, 48 h): 38 ± 1.8 µM; IC (TGI) (SKOV-3; SK-OV-3, 48 h): 24 ± 1.2 µM; TGI (HT-29; HT-29, MTT, 48 h drug exposure): 29 ± 0.5 μΜ; GI50 (HT-29; Homo sapiens, HT-29, 48 h): 18 ± 1 µM; IC50 (HT-29; Homo sapiens, HT-29, 48 h): 44 ± 1 µM; GI50 (PC-3; PC-3, 48 h): 11 ± 1 µM; IC50 (PC-3; PC-3, 48 h): 26.5 ± 0.9 µM; IC (TGI) (PC-3; PC-3, 48 h): 17 ± 1 µM
3 | CCN(CC)S(=O)(=O)c1cc(OC)c(OC)cc1Cc1nnc2sc(/C=C/c3ccc(F)cc3)nn12 [Compound 9b, (E)-N,N-diethyl-2-((6-(4-fluorostyryl)-[1,2,4]triazolo[3,4-b][1,3,4]thiadiazol-3-yl)methyl)-4,5-dimethoxybenzenesulfonamide] | > 100 | > 100 | > 100 | > 100 | 42 ± 1 | > 100 | 
4 | CCN(CC)S(=O)(=O)c1cc(OC)c(OC)cc1Cc1nnc2sc(/C=C/c3cccc([N+](=O)[O-])c3)nn12 [Compound 9c, (E)-N,N-diethyl-4,5-dimethoxy-2-((6-(3-nitrostyryl)-[1,2,4]triazolo[3,4-b][1,3,4]thiadiazol-3-yl)methyl)benzenesulfonamide] | > 100 | > 100 | > 100 | > 100 | 38 ± 2 | > 100 | 
5 | CCN(CC)S(=O)(=O)c1cc(OC)c(OC)cc1Cc1nnc2sc(-c3ccc(F)cc3)nn12 [Compound 6c, N,N-diethyl-2-((6-(4-fluorophenyl)-[1,2,4]triazolo[3,4-b][1,3,4]thiadiazol-3-yl)methyl)-4,5-dimethoxybenzenesulfonamide] | > 100 | > 100 | > 100 | > 100 | 90 ± 2 | > 100 | 
6 | CCN(CC)S(=O)(=O)c1cc(OC)c(OC)cc1Cc1nnc2sc(/C=C/c3ccc(Cl)cc3)nn12 [Compound 9a, (E)-2-((6-(4-chlorostyryl)-[1,2,4]triazolo[3,4-b][1,3,4]thiadiazol-3-yl)methyl)-N,N-diethyl-4,5-dimethoxybenzenesulfonamide] | > 100 | 84 ± 2 | > 100 | > 100 | 11 ± 1 | > 100 | 
7 | COc1cc(Cc2nnc3sc(-c4ccc(F)cc4)nn23)c(S(=O)(=O)N(C(C)C)C(C)C)cc1OC [Compound 7b, 2-((6-(4-fluorophenyl)-[1,2,4]triazolo[3,4-b][1,3,4]thiadiazol-3-yl)methyl)-N,N-diisopropyl-4,5-dimethoxybenzenesulfonamide] | > 100 | 80 ± 0.8 | > 100 | > 100 | 25 ± 0.5 | 80 ± 1 | 
8 | COc1cc(Cc2nnc3sc(-c4cccc(Cl)c4)nn23)c(S(=O)(=O)N(C(C)C)C(C)C)cc1OC [Compound 7a, 2-((6-(3-chlorophenyl)-[1,2,4]triazolo[3,4-b][1,3,4]thiadiazol-3-yl)methyl)-N,N-diisopropyl-4,5-dimethoxybenzenesulfonamide] | > 100 | 16 ± 0.8 | 46 ± 1.5 | > 100 | 20 ± 0.8 | > 100 | 
9 | CCN(CC)S(=O)(=O)c1cc(OC)c(OC)cc1Cc1nnc2sc(-c3ccc([N+](=O)[O-])cc3)nn12 [Compound 6d, N,N-diethyl-4,5-dimethoxy-2-((6-(4-nitrophenyl)-[1,2,4]triazolo[3,4-b][1,3,4]thiadiazol-3-yl)methyl)benzenesulfonamide] | > 100 | 80 ± 0.5 | > 100 | > 100 | 50 ± 0.5 | > 100 | 
10 | COc1cc(Cc2nnc3sc(-c4ccc([N+](=O)[O-])cc4)nn23)c(S(=O)(=O)N(C(C)C)C(C)C)cc1OC [Compound 7c, N,N-diisopropyl-4,5-dimethoxy-2-((6-(4-nitrophenyl)-[1,2,4]triazolo[3,4-b][1,3,4]thiadiazol-3-yl)methyl)benzenesulfonamide] | 66 ± 2.5 | 15 ± 1.4 | 28 ± 2.2 | > 100 | 23 ± 0.8 | 102 ± 1.2 | 
11 | CCN(CC)S(=O)(=O)c1cc(OC)c(OC)cc1Cc1nnc2sc(-c3cccc(Cl)c3)nn12 [Compound 6a, 2-((6-(3-chlorophenyl)-[1,2,4]triazolo[3,4-b][1,3,4]thiadiazol-3-yl)methyl)-N,N-diethyl-4,5-dimethoxybenzenesulfonamide] | > 100 | 6 ± 0.3 | 14 ± 2.5 | > 100 | 25 ± 1.4 | 112 ± 2.5 | 
12 | CCN(CC)S(=O)(=O)c1cc(OC)c(OC)cc1Cc1nnc2sc(/C=C/c3ccc([N+](=O)[O-])cc3)nn12 [Compound 9d, (E)-N,N-diethyl-4,5-dimethoxy-2-((6-(4-nitrostyryl)-[1,2,4]triazolo[3,4-b][1,3,4]thiadiazol-3-yl)methyl)benzenesulfonamide] | > 100 | > 100 | > 100 | > 100 | 30 ± 0.5 | > 100 | 
13 | COc1cc(Cc2nnc3sc(/C=C/c4ccc(F)cc4)nn23)c(S(=O)(=O)N(C(C)C)C(C)C)cc1OC [Compound 10b, (E)-2-((6-(4-fluorostyryl)-[1,2,4]triazolo[3,4-b][1,3,4]thiadiazol-3-yl)methyl)-N,N-diisopro-pyl-4,5-dimethoxybenzenesulfonamide] | > 100 | 50 ± 2 | > 100 | > 100 | 31 ± 1.1 | > 100 | 
14 | CCN(CC)S(=O)(=O)c1cc(OC)c(OC)cc1Cc1nnc2sc(-c3ccc(Cl)cc3)nn12 [Compound 6b, 2-((6-(4-chlorophenyl)-[1,2,4]triazolo[3,4-b][1,3,4]thiadiazol-3-yl)methyl)-N,N-diethyl-4,5-dimethoxybenzenesulfonamide] | > 100 | 36 ± 0.1 | 60 ± 0.8 | 104 ± 0.8 | 32 ± 0.4 | 56 ± 0.6 | 
